# “Also recorded” adds a separate entry of the source.
# Columns and labels:
# Balb/cJ mice = experiment: Light-induced retinal degeneration (OCT, H&E histology); type: in vivo
# Description: Retinal degeneration was induced by exposing dark-adapted Balb/cJ mice to white light with an intensity of ˜50 000 l×, delivered from a 100 W AC90-145 V lightemitting diode (LED) lamp (Home Depot) for 1 h. Abn-CBD in doses of 30, 15, or 7.5 mg kg^−1 was administered by i.p. injection in sterilized 80% DMSO/water (v/v) 1 h before exposure to bright light. […] Retinal morphology was analyzed in vivo by OCT 7 d after the light exposure. Then the mice were euthanized, and their eyes were subjected to staining with H&E staining and imaging.
# To assess the effect of abn-CBD on light-induced retinal degeneration in Balb/cJ mice, the retinas were examined by ultrahigh resolution OCT (Bioptigen). Pupils of mice were first dilated with 1% tropicamide, and the animals were anesthetized with ketamine/xylazine cocktail. Twenty-five frames of OCT images scanned at 0° and 90° were acquired in the B-scan and averaged.
# The structural morphology of mouse retinas challenged with bright light were assessed using H&E staining of paraffin sections. Mouse eyes were fixed in 4% paraformaldehyde and 1% glutaraldehyde followed by paraffin sectioning. Paraffin sections (5 μm thick) were stained with H&E and imaged by light microscopy (Leica).
# [1] = test system: visual cycle retinoids in mouse eye; experiment: Photobleaching and visual chromophore regeneration, ocular retinoid analysis; type: in vivo, Balb/cJ mice; details: 0.25 mg 1.5 h prior to flash of light bleaching 75% of rhodopsin
# Description: Balb/cJ mice were dark adapted for at least 24 h before the experiment. […] After the light exposure, the mice were kept in dark and euthanized at time intervals between 1 min to 8 h. The eyes were removed, flash frozen in liquid nitrogen, and stored in −80° C. until retinoid analysis.
# All procedures related to the retinoid analysis were done under dim red light. To extract retinoids, enucleated eyes were transferred to a glass/glass homogenizer and submerged in 1 mL of 40 mM hydroxylamine in a 1:1 solution of PBS/methanol (v/v). The eyes were thoroughly homogenized and incubated at RT for 20 min to allow derivatization of retinylaldehydes to retinaldehdye oximes. The retinoids were extracted with 4 mL of hexane. To facilitate the fraction separation, the samples were centrifuged at 5000 g for 10 min, after which the upper organic phase was collected in a glass test tube. The organic solvent was dried in a rotary SpeedVac, and the residual retinoids were redissolved in […] of hexanes, and subjected to HPLC analysis. Separation of retinoids was achieved on a normal phase column (Agilent Zorbax Sil 5 μm 4.6×250 mm) in a step gradient of ethyl acetate in hexane (1% for 10 min followed by 10% for 40 min at a constant flow rate of 1.5 mL min^−1). Elution of retinoids was monitored at 325 and 360 nm wavelengths. All-trans-retinyl esters, all-trans- and 11-cis-retinaldehdye oximes as well as atROL were identified based on their elution times and characteristic UV/vis spectra. Retinoids were quantified based on linear correlations between the amount of injected synthetic standards and the area under chromatographic peaks.
# Next, we examined the impact of abn-CBD on vitamin A metabolism in vivo. For this purpose, we analyzed the flow of retinoids via the visual cycle during the regeneration of visual chromophore after exposure to bright light. […] The light intensity was set up to cause photoisomerization in 75% of rhodopsin as indicated by the decrease in the amount of 11-cis-retinal measured immediately after the light exposure (FIG. 7). […]
# RPE65 = molecular target: T1, RPE65 (Bos taurus, UniProt Q28175); experiment: RPE65 isomerization activity assay; type: biochemical; details: bovine RPE microsomes preincubated with 10-50 μM
# T1 construct: from tissue; host or cells: bovine RPE microsomes
# Description: For the retinoid isomerization assay, UV-bleached RPE microsomes isolated from bovine eyes served as a source of robust RPE65 enzymatic activity. The isomerization reaction was performed in the presence of cellular retinaldehyde-binding protein (CRALBP) according to an established methodology published previously. The enzymatic reaction was initiated by addition of atROL the final concentration of 10 μM. After incubation at 30° C. for 30 min, the reaction products were extracted with hexane and analyzed by HPLC as described above.
# Thus, to further probe the biological effect of this compound, we tested its effect on the key enzymes of the visual cycle. For this purpose, microsomes isolated from bovine RPE cells were preincubated with 10-50 μM of abn-CBD (1:1 to 1:5 molar excess of cannabinoid) prior to the initiation of the esterification, isomerization, or oxidation reactions by addition of an adequate retinoid substrate.
# LRAT = molecular target: T2, LRAT (Bos taurus, UniProt Q9BGL2); experiment: Retinol esterification assay; type: biochemical; details: bovine RPE microsomes preincubated with 10-50 μM
# T2 construct: from tissue; host or cells: bovine RPE microsomes
# T2 sequence (Q9BGL2 1-230): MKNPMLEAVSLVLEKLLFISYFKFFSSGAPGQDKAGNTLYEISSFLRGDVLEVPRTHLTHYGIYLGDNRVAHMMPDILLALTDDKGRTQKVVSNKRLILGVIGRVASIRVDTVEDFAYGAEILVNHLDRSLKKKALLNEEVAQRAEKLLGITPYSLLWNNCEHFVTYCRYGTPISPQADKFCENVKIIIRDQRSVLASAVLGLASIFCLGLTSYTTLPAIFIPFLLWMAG
# Description: The enzymatic activity of LRAT was assayed using isolated UV-treated bovine RPE microsomes as described previously. The reaction mixture included 20 mM Tris/HCl buffer, pH 7.4, 1 mM DTT, 1% bovine serum albumin (BSA; w/v), and RPE microsomes (˜100 μg of total protein) in the total volume of 0.1 mL. To test the influence of abn-CBD on the LRAT activity, 10, 20, or 50 μM of this compound was added prior to the addition of atROL (final concentration of 10 μM). To record the initial rate of the esterification, the mixture was incubated at RT for 5 min. The reaction was quenched with 0.2 mL of methanol, and the retinoids were extracted with 0.3 mL of hexane. The extracted retinoids were separated on a normal phase column (Agilent Zorbax Sil 5 μm 4.6×250 mm) in an isocratic flow of 10% ethyl acetate in hexane (flow rate of 1.5 mL min^−1). Elution of retinoids was monitored at 325 nm. All-trans-retinyl esters were quantified based on a correlation between the amount of injected synthetic standards and the area under chromatographic peaks.
# Thus, to further probe the biological effect of this compound, we tested its effect on the key enzymes of the visual cycle. […]
# T1 sequence (Q28175 whole entry): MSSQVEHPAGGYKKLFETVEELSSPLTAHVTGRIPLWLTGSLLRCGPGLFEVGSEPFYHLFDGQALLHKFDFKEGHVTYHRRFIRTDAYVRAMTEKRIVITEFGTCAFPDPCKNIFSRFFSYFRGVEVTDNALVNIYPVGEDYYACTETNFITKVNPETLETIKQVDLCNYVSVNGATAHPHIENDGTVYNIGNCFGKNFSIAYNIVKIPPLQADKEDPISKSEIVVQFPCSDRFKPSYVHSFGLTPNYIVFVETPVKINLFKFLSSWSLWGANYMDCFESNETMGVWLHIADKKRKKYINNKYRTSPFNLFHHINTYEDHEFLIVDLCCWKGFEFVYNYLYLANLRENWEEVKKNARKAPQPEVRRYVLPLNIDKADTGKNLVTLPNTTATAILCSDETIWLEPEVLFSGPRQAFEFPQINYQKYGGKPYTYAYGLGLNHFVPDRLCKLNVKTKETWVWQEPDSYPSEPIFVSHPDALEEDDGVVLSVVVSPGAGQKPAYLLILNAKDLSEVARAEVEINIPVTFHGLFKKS
structure (smiles),measurement,setting,value
"C=C(C)[C@@H]1CCC(C)=C[C@H]1c1c(O)cc(O)cc1CCCCC [abn-CBD, 4-[(1R,6R)-3-Methyl-6-prop-1-en-2-ylcyclohex-2-en-1-yl]-5-pentylbenzene-1,3-diol]",retinal histology (H&E) after light exposure,Balb/cJ mice; 7 d post illumination,protective effect; also recorded: partial preservation of the photoreceptor cells
same,"dose causing 50% of maximum effect (ED50), protection against light-induced retinal damage","Balb/cJ mice; i.p. before bright light, OCT (ONL thickness) 7 d later, estimated",~15 mg/kg
same,protection against light-induced retinal damage (OCT retinal morphology),"Balb/cJ mice; i.p. before bright light, OCT a week later",largely protected; also recorded: protective effect
same,atROL level during chromophore regeneration,[1],transient accumulation of atROL
same,rate of 11-cis-retinaldehyde regeneration,[1],noticeably slower
same,rate of all-trans-retinaldehyde clearance vs control,[1],no differences
same,effect on enzymatic activity of RPE65,RPE65,did not cause a measurable decline
same,effect on enzymatic activity of LRAT,LRAT,did not cause a measurable decline
